The subject of the test is BDF1 mice, P388 leukemia ip, median survival T/C. The test is described as follows: NCI In Vivo Anticancer Drug Screen. Data for tumor model P388 Leukemia (intraperitoneal) in B6D2F1 (BDF1) mice. To be noted: endpoint: median survival time, higher = longer survival. The gist of the method: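 Read-out is survival of treated animals expressed relative to the vehicle group, as a T/C ratio.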

Setting [1] is: dose: 50.0 mg/kg/injection, schedule: Q01DX010 (ip), vehicle: saline.
The mark [2] stands for this setting: dose: 100.0 mg/kg/injection, schedule: Q01DX009 (ip), vehicle: Klucel (hydroxypropylcellulose) (HPC).
Setting [3] is: dose: 200.0 mg/kg/injection, schedule: Q01DX009 (ip), vehicle: Klucel (hydroxypropylcellulose) (HPC).
[4] abbreviates: dose: 400.0 mg/kg/injection, schedule: Q01DX009 (ip), vehicle: Klucel (hydroxypropylcellulose) (HPC).
The mark [5] stands for this setting: dose: 100.0 mg/kg/injection, schedule: Q01DX001 (ip), vehicle: Klucel (hydroxypropylcellulose) (HPC).
Where [6] appears, read: dose: 50.0 mg/kg/injection, schedule: Q01DX009 (ip), vehicle: saline with Tween-80.
[7] abbreviates: dose: 100.0 mg/kg/injection, schedule: Q01DX009 (ip), vehicle: saline with Tween-80.
Setting [8] is: dose: 25.0 mg/kg/injection, schedule: Q04DX003 (ip), vehicle: saline with Tween-80.

Where “and” joins values, the source holds several entries; their conditions need not be identical. Identical values can stand only once. Inconclusive results and toxic doses are left out. Non-standard residues stand in square brackets, D forms with d. Residues, ends and D or L forms follow the SMILES beside them. *: point of attachment. NMeY = CN[CH](Cc1ccc(O)cc1)C(=O)O; Bn = c1ccc(C*)cc1

For `O=S(=O)(c1ccccc1)N1C2=CCCC3CCCCC23c2ccccc21` (stereo unspecified), the T/C (dose: 100.0 mg/kg/injection, schedule: Q04DX002 (ip), vehicle: saline with Tween-80) was 95 % of control; the T/C (dose: 200.0 mg/kg/injection, schedule: Q04DX002 (ip), vehicle: saline with Tween-80) is 92 % of control; the T/C (dose: 400.0 mg/kg/injection, schedule: Q04DX002 (ip), vehicle: saline with Tween-80) is 92 % of control.
Consider `O=C1C(CO)=C[C@@H](O)[C@H]2O[C@@H]12`, for which the T/C is 95 % of control (dose: 0.75 mg/kg/injection, schedule: Q01DX010 (ip), vehicle: saline); 110 % of control (dose: 1.5 mg/kg/injection, schedule: Q01DX010 (ip), vehicle: saline); 95 % of control and 120 % of control (dose: 3.0 mg/kg/injection, schedule: Q01DX010 (ip), vehicle: saline); 95 % of control (dose: 6.0 mg/kg/injection, schedule: Q01DX010 (ip), vehicle: saline); 155 % of control (dose: 6.2 mg/kg/injection, schedule: Q01DX001 (ip), vehicle: saline); 100 % of control (dose: 12.0 mg/kg/injection, schedule: Q01DX010 (ip), vehicle: saline). The T/C was 160 % of control (dose: 12.5 mg/kg/injection, schedule: Q01DX001 (ip), vehicle: saline); 114 % of control and 115 % of control (dose: 24.0 mg/kg/injection, schedule: Q01DX010 (ip), vehicle: saline); 150 % of control (dose: 25.0 mg/kg/injection, schedule: Q01DX001 (ip), vehicle: saline); 110 % of control under setting [1]; 160 % of control and 161 % of control (dose: 96.0 mg/kg/injection, schedule: Q01DX010 (ip), vehicle: saline); 160 % of control (dose: 192.0 mg/kg/injection, schedule: Q01DX010 (ip), vehicle: saline). Besides, for the setting “dose: 384.0 mg/kg/injection, schedule: Q01DX010 (ip), vehicle: saline”, the T/C is 175 % of control.
For the molecule `Nc1ncnc2sc3c(c12)CCCC3`, the T/C was 105 % of control under setting [2], 114 % of control under setting [3] and 108 % of control under setting [4].
For the molecule `S=c1[nH]nc(NC2CCCCC2)s1`, the T/C reads like this: (dose: 25.0 mg/kg/injection, schedule: Q01DX001 (ip), vehicle: Klucel (hydroxypropylcellulose) (HPC)) 100 % of control; (dose: 50.0 mg/kg/injection, schedule: Q01DX001 (ip), vehicle: Klucel (hydroxypropylcellulose) (HPC)) 112 % of control; under setting [5], 87 % of control.
Consider `CCOc1nc(OCC)nc(-c2cccn2-c2ccccc2)n1`, for which the T/C is 100 % of control under setting [5]; 86 % of control under setting [2]; 104 % of control (dose: 200.0 mg/kg/injection, schedule: Q01DX001 (ip), vehicle: Klucel (hydroxypropylcellulose) (HPC)); 100 % of control under setting [3]; 90 % of control (dose: 400.0 mg/kg/injection, schedule: Q01DX001 (ip), vehicle: Klucel (hydroxypropylcellulose) (HPC)); 104 % of control under setting [4].
As to `Cc1[nH]nc(-c2ccon2)c1N=O`, the T/C by setting is: under setting [6], 111 % of control; under setting [7], 113 % of control.
As for `Cn1nnc(N/N=C/c2ccccc2)n1`, the T/C is, setting by setting: (dose: 3.12 mg/kg/injection, schedule: Q01DX009 (ip), vehicle: saline with Tween-80) 102 % of control; (dose: 4.0 mg/kg/injection, schedule: Q01DX009 (ip), vehicle: saline with Tween-80) 121 % of control; (dose: 6.25 mg/kg/injection, schedule: Q01DX009 (ip), vehicle: saline with Tween-80) 93 % of control; (dose: 6.25 mg/kg/injection, schedule: Q04DX003 (ip), vehicle: saline with Tween-80) 112 % of control; (dose: 8.0 mg/kg/injection, schedule: Q01DX009 (ip), vehicle: saline with Tween-80) 123 % of control; (dose: 12.0 mg/kg/injection, schedule: Q01DX009 (ip), vehicle: saline with Tween-80) 120 % of control. The T/C runs as follows: (dose: 12.5 mg/kg/injection, schedule: Q01DX009 (ip), vehicle: saline with Tween-80) 97 % of control and 107 % of control; (dose: 12.5 mg/kg/injection, schedule: Q04DX003 (ip), vehicle: saline with Tween-80) 105 % of control; (dose: 16.0 mg/kg/injection, schedule: Q01DX009 (ip), vehicle: saline with Tween-80) 98 % of control; (dose: 20.0 mg/kg/injection, schedule: Q01DX009 (ip), vehicle: saline with Tween-80) 114 % of control; (dose: 25.0 mg/kg/injection, schedule: Q01DX009 (ip), vehicle: saline with Tween-80) 100 % of control and 107 % of control; under setting [8], 99 % of control and 100 % of control.
With `CC(=O)OC1CC2c3ccccc3C1c1cccc[n+]12` (stereo unspecified), the T/C reads like this: (dose: 2.34 mg/kg/injection, schedule: Q01DX009 (ip), vehicle: Klucel (hydroxypropylcellulose) (HPC)) 87 % of control; (dose: 4.68 mg/kg/injection, schedule: Q01DX009 (ip), vehicle: Klucel (hydroxypropylcellulose) (HPC)) 91 % of control; (dose: 9.37 mg/kg/injection, schedule: Q01DX009 (ip), vehicle: Klucel (hydroxypropylcellulose) (HPC)) 91 % of control; (dose: 18.75 mg/kg/injection, schedule: Q01DX009 (ip), vehicle: Klucel (hydroxypropylcellulose) (HPC)) 87 % of control.
For `O=C1C(N2CC2)=C(N2CCCC(O)C2)C(=O)C(N2CC2)=C1N1CCCC(O)C1` (stereo unspecified), the T/C (dose: 1.0 mg/kg/injection, schedule: Q01DX009 (ip), vehicle: saline) is 195 % of control and the T/C (dose: 2.0 mg/kg/injection, schedule: Q01DX009 (ip), vehicle: saline) is 99 % of control.
Take `CNC(Cc1ccc(OCc2ccccc2)cc1)C(=O)NC(CC(C)C)C(=O)OC` (stereo unspecified) (H-[NMeY](Bn)-Leu-OMe; configuration not given here): the T/C is 106 % of control (dose: 25.0 mg/kg/injection, schedule: Q01DX009 (ip), vehicle: saline); 99 % of control (dose: 50.0 mg/kg/injection, schedule: Q01DX009 (ip), vehicle: saline); 108 % of control (dose: 50.0 mg/kg/injection, schedule: Q04DX003 (ip), vehicle: saline); 92 % of control (dose: 100.0 mg/kg/injection, schedule: Q01DX009 (ip), vehicle: saline); 111 % of control (dose: 100.0 mg/kg/injection, schedule: Q04DX003 (ip), vehicle: saline); 106 % of control (dose: 200.0 mg/kg/injection, schedule: Q01DX009 (ip), vehicle: saline). For the same molecule, the T/C (dose: 200.0 mg/kg/injection, schedule: Q04DX003 (ip), vehicle: saline) was 106 % of control.
With `CCN(CCS)Cc1ccccc1`, the T/C under setting [8] is 100 % of control; the T/C (dose: 50.0 mg/kg/injection, schedule: Q04DX003 (ip), vehicle: saline with Tween-80) is 104 % of control; the T/C (dose: 100.0 mg/kg/injection, schedule: Q04DX003 (ip), vehicle: saline with Tween-80) is 109 % of control.
Take `Cn1c(=O)c2[nH]cnc2n(C)c1=O`: the T/C is 95 % of control (dose: 25.0 mg/kg/injection, schedule: Q01DX010 (ip), vehicle: saline); 104 % of control under setting [1]; 100 % of control (dose: 100.0 mg/kg/injection, schedule: Q01DX010 (ip), vehicle: saline); 104 % of control (dose: 200.0 mg/kg/injection, schedule: Q01DX010 (ip), vehicle: saline).
`OC1CCCC12CC2` (stereo unspecified): the T/C runs as follows: under setting [6], 100 % of control; under setting [7], 102 % of control.
For the molecule `CCC(CCC(C)C1CCC2C3CC=C4CC(O)CCC4(C)C3CCC12C)C(C)C` (stereo unspecified) (tested in a mixture with another compound), the T/C (dose: 12.5 mg/kg/injection, schedule: Q#A X020 (ip), vehicle: water) was 90 % of control.
For the molecule `CNC(=S)N/N=C(/C)CCc1c(C)nn(C(=S)NC)c1C`, the T/C by setting is: (dose: 150.0 mg/kg/injection, schedule: Q04DX003 (ip), vehicle: Klucel (hydroxypropylcellulose) (HPC)) 112 % of control; (dose: 225.0 mg/kg/injection, schedule: Q04DX003 (ip), vehicle: Klucel (hydroxypropylcellulose) (HPC)) 112 % of control; (dose: 335.0 mg/kg/injection, schedule: Q04DX003 (ip), vehicle: Klucel (hydroxypropylcellulose) (HPC)) 108 % of control.
For the molecule `c1cc(Sc2cccc3nncn23)n2cnnc2c1`, the T/C (dose: 100.0 mg/kg/injection, schedule: Q01DX001 (ip), vehicle: saline with Tween-80) was 103 % of control; the T/C (dose: 200.0 mg/kg/injection, schedule: Q01DX001 (ip), vehicle: saline with Tween-80) was 97 % of control; the T/C (dose: 400.0 mg/kg/injection, schedule: Q01DX001 (ip), vehicle: saline with Tween-80) is 103 % of control.

Source of the values: PubChem BioAssay AID328 (DTP/NCI, 2004).
